Measured values published in paper PMC11274883, “Anticancer Effect of Pt^[sequence], Pt^II5MESS, Pt^II56MESS and Their Platinum(IV)-Dihydroxy Derivatives against Triple-Negative Breast Cancer and Cisplatin-Resistant Colorectal Cancer” (Cancers, 2024).

What was measured:
Assay type in all cases: cell-based
HT29 cells [1] = assay: TMRE mitochondrial membrane potential assay; conditions: complexes at IC50, FCCP 20 µM
Procedure: (§1) Cells were then treated with an IC50 drug concentration for each complex. At 24, 48 or 72 h, DMEM was removed, and cells were washed with PBS. Then, cells were incubated with 1 µM tetramethylrhodamine, ethyl ester (TMRE) stain for 30 min. TMRE was then removed, and cells were washed twice with PBS (0.2% BSA), after which phenol red-free media was added. […] The cells were then stained with TMRE, as described above, and the resulting solution was scanned for fluorescence. Three independent experiments in triplicates were implemented.

MDA−MB−231 cells [2] = assay: TMRE mitochondrial membrane potential assay; conditions: complexes at IC50, FCCP 20 µM
Procedure: as §1

HT29 cells [3] = assay: DCFDA cellular ROS detection assay; conditions: complexes at IC50, TBHP 20 µM
Procedure: (§2) DCFDA/H2DCFDA-cellular ROS Assay Kit (Abcam, Cambridge, MA, USA) was used to investigate the production of ROS in treated cells, as previously described. MDA−MB−231 or HT29 cells were seeded at a total concentration of 2500 cells/well in 96-well plates and incubated overnight. DMEM was then removed, and cells washed with 1× kit buffer, and stained with 25 µM 2′,7′-dichlorofluorescein diacetate (DCFH-DA) for 45 min. […] After that, the plates were scanned using the Glo-Max®-Multimode microplate reader (Promega Corporation, Alexandra, VIC, Australia) at an excitation/emission of 485/535 nm to detect fluorescence (relative fluorescence units, or RFU) at various time points. A positive control was generated using 20 µM tert-butyl hydroperoxide (TBHP), and the same procedure was applied with DCFDA. Three independent experiments in triplicates were implemented.

MDA−MB−231 cells [4] = assay: DCFDA cellular ROS detection assay; conditions: complexes at IC50, TBHP 20 µM
Procedure: as §2

Row | SMILES | MtMp (mitochondrial membrane potential) (HT29 cells [1]; HT29, 24 h) [RFU] | MtMp (mitochondrial membrane potential) (HT29 cells [1]; HT29, 48 h) [RFU] | MtMp (mitochondrial membrane potential) (HT29 cells [1]; HT29, 72 h) [RFU] | MtMp (mitochondrial membrane potential) (MDA−MB−231 cells [2]; MDA−MB−231, 24 h) [RFU] | MtMp (mitochondrial membrane potential) (MDA−MB−231 cells [2]; MDA−MB−231, 48 h) [RFU] | MtMp (mitochondrial membrane potential) (MDA−MB−231 cells [2]; MDA−MB−231, 72 h) [RFU] | ROS production (HT29 cells [3]; HT29, 24 h) [RFU] | ROS production (HT29 cells [3]; HT29, 48 h) [RFU] | ROS production (HT29 cells [3]; HT29, 72 h) [RFU] | ROS production (MDA−MB−231 cells [4]; MDA−MB−231, 24 h) [RFU] | ROS production (MDA−MB−231 cells [4]; MDA−MB−231, 48 h) [RFU] | ROS production (MDA−MB−231 cells [4]; MDA−MB−231, 72 h) [RFU]
1 | N#CC(C#N)=NNc1ccc(OC(F)(F)F)cc1 [FCCP, carbonyl cyanide 4-(trifluoromethoxy) phenylhydrazone, reference compound] | 184.32 | 143.31 | 83.58 | 215.89 | 123.38 | 99.10 |  |  |  |  |  | 
2 | CC(C)(C)OO [TBHP, tert-butyl hydroperoxide, reference compound] |  |  |  |  |  |  | 544.67 | 362.55 | 371.44 | 509.88 | 400.11 | 388.41
